Source: PubChem BioAssay (NCI)
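Growth conditions: 96-well plates. Treatment: test compound, 48 hours, 5 concentrations. Analysis: linear interpolation between bracketing concentrations; unreached endpoints set to highest concentration. Here, GI50 denotes the concentration required for 50% inhibition of growth. TGI is the concentration that stops growth completely.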

What was measured:
Assay in all cases: DTP human tumour cell line panel, 48 h
[1] = system: NCI-H226 lung
[2] = system: OVCAR-4 ovarian
[3] = system: ACHN renal
[4] = system: HCT-116 colon
[5] = system: SF-539 CNS
[6] = system: NCI-H522 lung
[7] = system: SK-MEL-2 melanoma
[8] = system: UACC-257 melanoma
[9] = system: SR leukemia

Row | Compound | GI50 [1] [µM] | TGI [1] [µM] | GI50 [2] [nM] | TGI [2] [µM] | GI50 [3] [µM] | TGI [3] [µM] | GI50 [4] [nM] | TGI [4] [µM] | GI50 [5] [nM] | TGI [5] [µM] | GI50 [6] [nM] | TGI [6] [µM] | GI50 [7] [µM] | TGI [7] [µM] | GI50 [8] [µM] | TGI [8] [µM] | GI50 [9] [nM] | TGI [9] [µM]
1 | CC(C)(C)c1nc(-c2cccc(NS(=O)(=O)c3c(F)cccc3F)c2F)c(-c2ccnc(N)n2)s1 | 32.9 | > 100 | 50500 | > 100 | 0.211 | > 100 | 20400 | > 100 | 39200 | > 100 | 19000 | 54.7 |  |  |  |  |  | 
2 | CCc1nc2cc(/C=C/C(=O)NO)ccc2c(=O)n1CCc1ccc(OC)cc1 | 2.87 | 17.3 | 2960 | 58.7 | 1.85 | 4.36 | 1590 | 9.51 | 1910 | 6.29 | 1430 | 4.66 | 3.66 | 24.9 | 2.93 | 9.33 | 1940 | > 100
3 | COc1ccc2nc3cccc([N+](=O)[O-])c3c(NCCNCCN(C)C)c2c1 | 0.219 | 0.629 | 19.9 | 0.0509 | 0.0414 | 0.439 | 250 | 12 | 199 | 0.429 | 10.2 | 0.0184 | 0.0308 | 0.107 | 0.24 | 0.604 | 32.9 | 
4 | CCOC(=O)C1=C(C(=O)OCC)C2(c3ccccc3)N(O1)c1ccccc1C2(C)C (stereo unspecified) |  | > 100 |  | 71.8 |  |  |  | > 100 |  | > 100 |  | 63.8 |  | > 100 |  | > 100 |  | 
5 | O=C(/C=C\n1cnc(-c2cc(C(F)(F)F)cc(C(F)(F)F)c2)n1)N1CC(F)(F)C1 |  |  | 224 | 4.13 | 1.3 | > 25 | 400 | 4.45 | 161 | 1.58 | 423 | 4.47 | 0.154 | 1.58 | 1.17 | > 13.1 | 151 | > 25
6 | Cc1c(C)c2c(c(C)c1OCC(=O)O)CC[C@@](C)(CCC[C@@H](C)CCC[C@@H](C)CCCC(C)C)O2 | 89 | 244 | 59600 | 136 | 53.1 | 112 | 33200 | 108 | 78100 | 153 | 64100 | 154 | 64.4 | 142 | 77.2 | 183 | 50400 | 500
7 | COc1cc(-c2cc3ncccc3c3[nH]c(=O)c4cccnc4c23)cc(OC)c1OC | 23.6 | > 100 | 8870 | > 100 | 0.885 | > 100 |  |  | 488 | 5.84 | 328 | 82.5 | 0.833 | > 100 |  |  | 359 | 71.9
8 | Nc1nc2c(ccc3ccccc32)s1 | > 100 | > 100 | > 100000 | > 100 | > 100 | > 100 | > 100000 | > 100 | > 100000 | > 100 | > 100000 | > 100 |  |  | > 100 | > 100 |  | 
9 | O=C(Nc1ccc2c(c1)OCCO2)C(=O)c1c[nH]c2ccccc12 | 5.03 | 61.3 | 3880 | > 100 | 5.19 | > 100 | 1250 | > 20.5 | 1500 | 5.32 | 536 | 16.3 | 2.62 | 32.9 | > 23.5 | > 100 | 268 | > 46.7
10 | CC(C)=C1CCC(CN2CCOCC2)C1=O (stereo unspecified) |  | 46.1 |  | 15.6 |  | 23 |  | 15.8 |  | 31.9 |  | 0.163 |  | 36.6 |  | 32.5 |  | 11.2
11 | Nc1ccc(-c2ccc3ncc4ccc(=O)n(-c5cccc(C(F)(F)F)c5)c4c3c2)cn1 | < 0.01 | 4.7 | < 10 | 0.0337 | < 0.01 |  | 13.5 | 1.41 | < 10 | 0.039 | < 10 | 2.03 | < 0.01 | 0.0572 | < 0.01 | 0.0708 | < 10 | 0.56
12 | O=C(Oc1ccccc1)C(Br)C(Br)c1ccccc1 (stereo unspecified) | 5 | 18.7 | 2250 | 5.04 | 2.06 | 3.79 | 1800 | 3.54 | 4760 | 16.4 | 1690 | 3.39 | 16.1 | 33.1 | 2.06 | 4.8 | 1930 | 5.5
13 | CC(C)C(=S)N(C)O |  | > 100 |  | > 100 |  | > 100 |  | 19.9 |  | 89.7 |  | > 27.2 |  | 72.3 |  | > 100 |  | > 100
14 | O=C(O)Cn1ccc2ccccc21 | > 100 | > 100 | > 100000 | > 100 | > 100 | > 100 | > 100000 | > 100 | > 100000 | > 100 | > 100000 | > 100 | > 100 | > 100 | > 100 | > 100 |  | 
15 | CN1CCN(CCCOc2cccc3nc(Nc4ccc(F)c(F)c4)ccc23)CC1 | 5.51 | 11.1 | 6420 | 15.2 | 4.57 | 9.17 | 3800 | 7.87 | 4030 | 8.56 | 1010 | 3.69 | 3.95 | 8.62 | 0.655 | 1.39 | 870 | 4.07
16 | C=C(CN1c2ccccc2Sc2ccccc21)c1ccc(C(=O)Nc2ccccc2N)cc1 | 8.53 | > 100 | 12000 | 97.3 | > 71.7 | > 100 | 11100 | > 100 | > 26000 | > 100 | 1630 | > 100 | > 100 | > 100 | 67.6 | > 100 | 2320 | > 59.5

Row | Compound | GI50 [1] [µM] | TGI [1] [µM] | GI50 [2] [nM] | TGI [2] [µM] | GI50 [3] [µM] | TGI [3] [µM] | GI50 [4] [nM] | TGI [4] [µM] | GI50 [5] [nM] | TGI [5] [µM] | GI50 [6] [nM] | TGI [6] [µM] | GI50 [7] [µM] | TGI [7] [µM] | GI50 [8] [µM] | TGI [8] [µM] | GI50 [9] [nM] | TGI [9] [µM]
17 | CCOC(=O)C#Cc1c(C(=O)OCC)nnn1[C@@H]1O[C@H](CO)[C@H]2OC3(CCCCC3)O[C@H]21 | 1.72 | 3.17 | 2040 | 4.48 | 1.8 | 3.41 | 1920 | 3.48 |  |  | 1960 | 4.09 | 17.7 | 34 | 2.93 | 7.52 | 1630 | 4.64
18 | O=C1Nc2ccccc2/C1=C/c1cn(CC(O)Cn2cc(/C=C3\C(=O)Nc4ccccc43)c3ccccc32)c2ccccc12 (stereo unspecified) | 1.68 | 3.55 |  |  | 1.63 | 3.91 | 1660 | 4.13 | 1550 | 3.11 |  |  | 1.77 | 3.49 | 2.35 | 4.44 |  | 
19 | CCCCN1C(=O)/C(=c2\sc3n(c2=O)C2C(NN=3)N(CC)C(=O)N2CC)c2ccccc21 (stereo unspecified) |  |  | 909 | 4.83 |  |  |  |  | 371 | 1.46 | 508 | 3.44 | 1.47 | 5.75 |  |  | 360 | 
20 | CCN(CC)c1ccc2nc3ccc(N=Nc4ccc(O)cc4)cc3[n+](-c3ccccc3)c2c1 | 11.4 | 23.6 | 1390 | 2.77 | 4.1 | 21.1 | 2660 | 10.6 | 13300 | 91.2 |  |  | 2.65 | > 100 | 3.11 | 9.78 |  | 
21 | COc1cc(-c2nccc3cc4c(cc23)OCO4)cc(OC)c1OC | 16.4 | > 100 | > 100000 | > 100 | 9.92 | > 100 | 4560 | > 100 | 3310 | 44.1 | 2330 | 27.4 | 3.08 | > 100 | > 100 | > 100 |  | 
22 | COc1cc(CN(c2ccc(C)cc2)C2OC(=O)c3ccccc32)cc(OC)c1OC (stereo unspecified) | 0.507 | > 19.7 | 2930 | > 100 | 3.21 | > 100 | 501 | > 100 | 393 | > 100 | 470 | 4.24 | 0.487 | > 100 | 3.41 | > 100 |  | 
23 | Cn1cncc1-c1c(F)cncc1NC(=O)c1c(N)nn2cc(F)cnc12 |  |  | 1270 | 14.4 | 0.422 | > 100 | 2070 | 16.3 |  |  | 3460 | 19.8 | 0.0751 | 0.397 | 20.9 | > 100 | 206 | 2.54
24 | Cc1cn2c(/C=N/N=C(N)N)c(-c3ccncc3)nc2s1 | 21.8 | 40.5 | 13200 | 32 | 18.5 | 32.5 | 10700 | 22.5 |  |  | 17700 | 59.7 | 28.3 | > 100 | 19.5 | 38.5 | 5300 | 17.5
25 | COc1ccc(-c2nc(N)c(C#N)c3c2CCOc2c-3ccc3ccccc23)cc1 | 18 | 58.2 | 1430 | 9.38 | 10.1 | 22.6 | 54300 | > 100 | 21200 | 52.6 | 38100 | > 100 | 36.8 | > 100 | 13.7 | 37.8 |  | 
26 | CCN(CC)c1nc(NC2CCCCC2)c2nc(N(CC)CC)nc(NC3CCCCC3)c2n1 |  | > 100 |  |  |  | > 100 |  | > 100 |  | > 100 |  |  |  |  |  |  |  | > 100
27 | CC12OC(C(=O)C13CCC3)C1C(=O)c3ccc4c(ccc5ccccc54)c3C(=O)C12 (stereo unspecified) |  |  |  |  | 6.78 | 21.4 | 11400 | 24.8 | 11100 | 66.8 | 13000 | 35.1 | 19.4 | > 100 | 10.7 | 39.3 |  | 
28 | CCC[CH2][Sn]([CH2]CCC)([CH2]CCC)[O]C(=O)C(OC)c1ccccc1 (stereo unspecified) | 0.104 | 0.252 | 60.4 | 0.189 | 0.129 | 0.257 | 50.8 | 0.182 | 134 | 0.268 | 88.5 | 0.212 |  |  | 0.0969 | 0.217 |  | 
29 | C[C@H](NC(=O)c1c(C(F)F)nn(C)c1Oc1cccc(C(F)(F)F)c1)c1ccc(C(=O)O)cc1 | > 100 | > 100 | > 100000 | > 100 | > 100 | > 100 | > 100000 | > 100 | > 100000 | > 100 | > 100000 | > 100 | > 100 | > 100 | > 100 | > 100 |  | 
30 | Cc1ccc(O)c(NC2=C(Cl)C(=O)N(Cc3ccccc3)C2=O)c1 | 15 | 37.3 | 31700 | > 100 | 32.4 | > 100 | 31200 | > 100 |  |  | 13100 | 29.9 | 19 | 39 |  |  | 18300 | 84.9
31 | C=Cc1c(C)c2cc3[nH]c(cc4nc(cc5nc(cc1[nH]2)C(C)=C5CCC(=O)N(CC)CC)C(CCC(=O)N(CC)CC)=C4C)c(C)c3C=C |  |  |  | > 100 |  | > 100 |  | > 100 |  | > 100 |  | > 100 |  | > 100 |  | > 100 |  | > 100
32 | COc1cc2nc(-c3cccc4cccnc34)nc(NC3CCN(Cc4ccccc4)CC3)c2cc1OC |  |  | 1110 | 2.71 | 0.773 | 2.08 | 158 | 0.338 | 1400 | 2.92 | 1450 | 3.98 | 1.68 | 3.53 | 2.07 | 4.1 |  | 
